The numbers were not newly measured in PMC11577316, “Tuning the Properties of Rigidified Acyclic DEDPA^2– Derivatives for Application in PET Using Copper-64” (Inorganic Chemistry, 2024), which cites them from elsewhere.

Where two headings read alike, the source gives them in different places. Marks after values point to notes of the source that are not given here.

Test in data set [1]: not given
This is another data set of the same source.

Test in data set [2]: not given
This is another data set of the same source.

Details of data set [3]: method as in PMID 22583103. As to conditions: vs Ag/AgCl ref 28.

On to `O=C(O)c1cccc(CNCCNCc2cccc(C(=O)O)n2)n1` [DEDPA^2–, 6,6′-((ethane-1,2-diylbis(azanediyl))bis(methylene))dipicolinic acid], for which the “log KCuL” value (Cu(II) complex, 0.15 M NaCl ref 28) is listed as 19.16 ^d. Besides, the pCu (–log [Cu(II)]free, [L]tot = 10 μM, [Cu(II)]tot = 1 μM, column footnote c: 0.15 M NaCl ref 26) is given as 18.5. In data set [1] (0.1 M (Me4N)(NO3) ref 25), the “log K1^H” value is 8.69, the “log K2^H” value was 6.18, the “log K3^H” value is reported as 3.08 and the “log K4^H” value was 2.33. Besides, in data set [1] (0.15 M NaCl ref 26), the “log K1^H” value was 9.00, the “log K2^H” value is on record as 6.30, the “log K3^H” value is given as 3.06 and the “log K4^H” value is 2.59.

For the compound `O=C([O-])c1cccc(CNCCNCc2cccc(C(=O)[O-])n2)n1.[64Cu+2]` [[^64Cu(DEDPA)]], the stability in serum entry in data set [2] is “poor stability in serum”.

Consider `O=C([O-])c1cccc(CNCCNCc2cccc(C(=O)[O-])n2)n1.[Cu+2]` [[Cu(DEDPA)]], for which the irreversible reduction peak in data set [3] is given as −1.12 V.
